Measurements published in patent publication US7714014B2, “Targeting GLI proteins in human cancer by small molecules” (The Regents of the University of California, priority 2005, dated 2010).

Columns and labels:
Type in all cases: cell-based, human
[1] = system: GLI1, GLI2 and GLI/TAFII31 induced transcription in NSCLC A549 cells; experiment: 6xGLI BS-luciferase reporter assay (GLI / TAFII31 co-expression); conditions: for reduction of transcription activity (6xGLI BS-luciferase): 20 μM, 16-20 hours
Experimental: One day before transfection, cells (1×10^5) were plated in 12-well plates with growth medium without antibiotics. When cells reached 80-90% of confluence they were co-transfected using 0.5 μg of each promoter construct in pGL3Basic vector and 0.025 μg pRL-TK Vector (Promega; Madison, Wis.) containing Renilla Luciferase as an internal control for the transformation efficiency. Lipofectamine 2000™ (Invitrogen Life Technologies) was used to mediate transfection for about 6 hours. Then the medium was replaced with fresh medium containing various small molecule compounds at a concentration of 30 μM, and the resulting cells were cultured for an additional 18-24 hours and subjected to luciferase assay. Briefly, cells were lysed in a lysis buffer and Firefly and Renilla Luciferase activities in cells of each well, were measured using Dual-Luciferase Assay System (Promega) and an illuminometer. The measured luciferase activities were normalized to pRL-TK Vector activity and were given relative to the basal activity of empty pGL3-Basic Vector, which was set to unity. The data shown represent mean values (±S.D.). All measurements were performed in triplicate and repeated in at least three independent experiments. The human Wnt-2 promoter-luciferase construct, the human SOCS3 promoter-Luciferase construct and the human Gremlin promoter-luciferase construct were cloned and characterized in the laboratory of Dr. Jablons at the University of California, San Francisco (San Francisco, Calif.; He et al., Biochem Biophy Res Comm, 2003; and unpublished data). The 6GLI-TKO-luciferase construct (containing 6 repeats of consensus GLI DNA binding sequence) was kindly provided by Dr. Matthias Hebrok's laboratory at the University of California, San Francisco (San Francisco, Calif.).
Further, the specificity of the compounds of the present invention in inhibiting GLI activity and to determine whether these compounds block the interaction between GlLI and TAFII31 as described above, was examined. Specifically, in this analysis, an expression construct linking the 6 repeats of GLI-binding sites (6xGLI BS) to a luciferase reporter gene as a surrogate measurement of the GLI-dependent transcription was used to examine the 6xGLI BS-luciferase activity after treatment of NSCLC A549 cells with compound FN1-8. […] This finding again confirmed that both GLI1 and GLI2 specifically bound to the GLI-binding sites and were functionally active in transcription. […] After treatment of the A549 cells for 16-20 hours with 20 μM, FN1-8 both GLI alone and GLI/TAFII31 induced 6xGLI BS-luciferase transcription was reduced.

[2] = system: NSCLC cells A549, H358, and H322; experiment: MTS cell proliferation assay; conditions: 7.5 μM or 15 μM; dose-dependent, already after 1 day
Excerpt: (§1) Another assay for determining the number of viable cells in proliferation or cytotoxicity assays is the MTS assay, a calorimetric method. MTS assay reagents are commercially available (Promega Corp., Madison, Wis.). The reagent contains a tetrazolium compound [3-(4,5-dimethylthiazol-2-yl)-5-(3-carboxymethoxyphenyl)-2-(4-sulfophenyl)-2H-tetrazolium, inner salt; MTS] and an electron coupling reagent (phenazine ethosulfate; PES). PES has enhanced chemical stability, which allows it to be combined with MTS to form a stable solution. The MTS tetrazolium compound (Owen.s reagent) is bioreduced by cells into a colored formazan product that is soluble in tissue culture medium. This conversion may be accomplished by NADPH or NADH produced by dehydrogenase enzymes in metabolically active cells. The quantity of formazan product as measured by the absorbance at 490 nm is directly proportional to the number of living cells in culture. Because the MTS formazan product is soluble in tissue culture medium, this assay requires fewer steps than procedures that use tetrazolium compounds such as MTT. The formazan product of MTT reduction is a crystalline precipitate that requires an additional step in the procedure to dissolve the crystals before recording absorbance readings at 570 nm. […]

[3] = system: melanoma cells Malme-3M, A375, G361, SK-Mel-2, SK-Mel-5, and SK-Mel-28; experiment: MTS cell proliferation assay; conditions: 5 μM or 10 μM
Excerpt: as §1

H1299 (NSCLC) = experiment: Apoptosis analysis (Annexin V FITC, flow cytometry); conditions: 3 days
Experimental: Apoptosis was analyzed by using an Annexin V FITC Apoptosis Detection Kit (Biosource, Camarillo, Calif.), according to the manufacturer's protocol. After treatment with different small molecule compounds at various concentrations for about 3 days, cells were harvested by trypsinization, stained and immediately analyzed by flow cytometry (FACScan; Decton Dickinson, Franklin Lake, N.J.). Early apoptotic cells with exposed phosphatidylserine but intact cell membranes will bind to Annexin V-FITC, but not propidium iodide (PI). Cells in necrotic or late apoptotic stages will be labeled with both Annexin V-FITC and PI. “% apoptotic cells” or “% apoptosis” refers to the combined early and late apoptotic cells.
Flow cytometry was also used to examine apoptosis in several NSCLC cell lines after treatment with small molecule compounds of the invention.

| Structure (SMILES) | GLI protein-TAF-induced transcriptional activation ([1]; A549 (FIG. 16)) | reduction of transcription activity (6xGLI BS-luciferase) ([1]; GLI1 cotransfected with TAFII31) | reduction of transcription activity (6xGLI BS-luciferase) ([1]; GLI2 cotransfected with TAFII31) | reduction of transcription activity (6xGLI BS-luciferase) ([1]; GLI alone) | cell proliferation (MTS) [2] | cell proliferation (MTS) [3] | % of apoptotic cells (H1299 (NSCLC); H1299, 10 μM) | % of apoptotic cells (H1299 (NSCLC); H1299, 100 μM) |
| --- | --- | --- | --- | --- | --- | --- | --- | --- |
| O=C(NCCc1ccc(O)cc1)C1C(c2ccccc2)=NN(c2ccccc2)C1c1ccccc1 (centres unmarked) [FN1-8, N-(2-(4-Hydroxyphenyl)ethyl)-1,3,5-triphenyl-4,5-dihydro-pyrazole-4-carboxyamide] | reduces GLI protein-TAF-induced transcriptional activation | about 70% | about 50% | approximately 30% | significantly inhibited cell proliferation | significantly inhibited cell proliferation |  |  |
| O=C(NCCCCCO)C1C(c2ccccc2)=NN(c2ccccc2)C1c1ccccc1 (centres unmarked) [FN1-5, N-(5-Hydroxypentyl)-1,3,5-triphenyl-4,5-dihydro-pyrazole-4-carboxyamide] |  |  |  |  |  |  | 6.7% | 55.9% |
